One assay has as its target T1, human CB2 receptors (Homo sapiens, UniProt P34972).
T1 construct: expressed in transfected cells; host or cells: CHO cells
In words: functional cAMP assay, human CB2. The note with it: CHO cells expressing human CB2, cAMP; read-out: human CB2 EC50. It is filed as cell-based. Put shortly: (§1)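 Cells are seeded 17-24 h ahead, then preincubated in Krebs Ringer bicarbonate buffer with 1 mM IBMX at 30 °C. Compounds act for 30 min at 30 °C, after which lysis and cAMP detection reagents are added for 2 h at room temperature. Time-resolved FRET gives cAMP content, and EC50 values are fitted from it.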
For orientation: Changes in cAMP serve as a functional read-out for many G protein-coupled receptors.

In a further assay the target is T2, human CB1 receptors (Homo sapiens, UniProt P21554).
T2 construct: expressed in transfected cells; host or cells: CHO cells
Nature of the assay: functional cAMP assay, human CB1. It is filed as cell-based. The following applies: CHO cells expressing human CB1, cAMP; read-out: human CB1 EC50. Put shortly: as §1

Among the data in patent US8741906B2 (priority 2011, dated 2014) are EC50 values, retold here.

T1 sequence (P34972 whole entry): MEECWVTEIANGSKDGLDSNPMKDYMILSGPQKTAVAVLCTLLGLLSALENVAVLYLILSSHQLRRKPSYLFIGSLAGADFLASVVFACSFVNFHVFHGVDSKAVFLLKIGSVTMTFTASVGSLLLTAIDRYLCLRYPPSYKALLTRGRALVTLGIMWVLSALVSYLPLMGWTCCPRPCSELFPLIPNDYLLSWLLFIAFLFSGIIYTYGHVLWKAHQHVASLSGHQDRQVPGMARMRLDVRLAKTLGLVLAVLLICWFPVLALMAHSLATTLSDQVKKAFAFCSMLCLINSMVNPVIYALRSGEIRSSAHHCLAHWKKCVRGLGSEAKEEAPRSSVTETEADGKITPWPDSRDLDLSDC
T2 sequence (P21554 whole entry): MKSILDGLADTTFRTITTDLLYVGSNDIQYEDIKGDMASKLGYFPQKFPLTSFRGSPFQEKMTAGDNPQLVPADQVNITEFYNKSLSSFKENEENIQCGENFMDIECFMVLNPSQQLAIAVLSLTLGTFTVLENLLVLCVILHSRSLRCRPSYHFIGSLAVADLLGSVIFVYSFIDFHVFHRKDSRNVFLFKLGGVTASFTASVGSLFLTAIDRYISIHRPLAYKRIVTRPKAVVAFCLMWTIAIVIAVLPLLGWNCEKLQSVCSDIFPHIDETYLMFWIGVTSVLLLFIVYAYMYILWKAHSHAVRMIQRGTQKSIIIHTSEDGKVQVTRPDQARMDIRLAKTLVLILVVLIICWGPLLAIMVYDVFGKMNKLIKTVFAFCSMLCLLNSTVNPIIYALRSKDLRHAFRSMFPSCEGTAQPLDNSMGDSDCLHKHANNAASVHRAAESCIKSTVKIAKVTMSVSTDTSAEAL

What is called EC50 is the concentration at which the effect is half-maximal. As to `CC(C)(C)c1nc(N2CCC(F)(F)C2)c2nnn(CC3CCCCC3)c2n1` [Example 64, 5-tert-Butyl-3-cyclohexylmethyl-7-(3,3-difluoro-pyrrolidin-1-yl)-3H-[1,2,3]triazolo[4,5-d]pyrimidine], the EC50 is 2.3 nM at human CB2 receptors and more than 10000 nM at human CB1 receptors.

`CC(C)(C)c1nc(N2CCC(F)(F)C2)c2nnn(Cc3cccc(Cl)c3)c2n1` [Example 65, 5-tert-Butyl-3-(3-chloro-benzyl)-7-(3,3-difluoro-pyrrolidin-1-yl)-3H-[1,2,3]triazolo[4,5-d]pyrimidine]: the values for the EC50 at human CB2 receptors and at human CB1 receptors were 0.9 nM and 220 nM, respectively.

`CC(C)(C)c1nc(N2CCC(F)(F)C2)c2nnn(Cc3ccc(Cl)cc3)c2n1` [Example 66, 5-tert-Butyl-3-(4-chloro-benzyl)-7-(3,3-difluoro-pyrrolidin-1-yl)-3H-[1,2,3]triazolo[4,5-d]pyrimidine]: the figures for the EC50 at human CB2 receptors and on human CB1 receptors were 2 nM and more than 10000 nM, respectively.

As for `CC(C)(C)c1nc(N2CCC(F)(F)C2)c2nnn(Cc3cccc(Cl)c3Cl)c2n1` [Example 67, 5-tert-Butyl-3-(2,3-dichloro-benzyl)-7-(3,3-difluoro-pyrrolidin-1-yl)-3H-[1,2,3]triazolo[4,5-d]pyrimidine], the EC50 stood at 0.2 nM at human CB2 receptors and 162 nM at human CB1 receptors.

For the compound `CC(C)(C)c1nc(N2CCC(F)(F)C2)c2nnn(Cc3ccc(Cl)cc3Cl)c2n1` [Example 68, 5-tert-Butyl-3-(2,4-dichloro-benzyl)-7-(3,3-difluoro-pyrrolidin-1-yl)-3H-[1,2,3]triazolo[4,5-d]pyrimidine], the EC50 on human CB2 receptors is 0.7 nM; on human CB1 receptors, more than 10000 nM.

In the case of `CC(C)(C)c1nc(N2CCC(F)(F)C2)c2nnn(Cc3cc(Cl)ccc3Cl)c2n1` [Example 69, 5-tert-Butyl-3-(2,5-dichloro-benzyl)-7-(3,3-difluoro-pyrrolidin-1-yl)-3H-[1,2,3]triazolo[4,5-d]pyrimidine], the EC50 on human CB2 receptors turned out to be 0.3 nM; at human CB1 receptors, 276 nM.

Regarding `CC(C)(C)c1nc(N2CCC(F)(F)C2)c2nnn(Cc3c(Cl)cccc3Cl)c2n1` [Example 70, 5-tert-Butyl-3-(2,6-dichloro-benzyl)-7-(3,3-difluoro-pyrrolidin-1-yl)-3H-[1,2,3]triazolo[4,5-d]pyrimidine], the EC50 at human CB2 receptors amounted to 0.1 nM; on human CB1 receptors it was 50.8 nM.

On to `CC(C)(C)c1nc(N2CCC(F)(F)C2)c2nnn(Cc3ccc(F)cc3Cl)c2n1` [Example 71, 5-tert-Butyl-3-(2-chloro-4-fluoro-benzyl)-7-(3,3-difluoro-pyrrolidin-1-yl)-3H-[1,2,3]triazolo[4,5-d]pyrimidine], for which the figures for the EC50 on human CB2 receptors and at human CB1 receptors were 0.4 nM and more than 10000 nM, respectively.

With `CC(C)(C)c1nc(N2CCC(F)(F)C2)c2nnn(Cc3c(F)cccc3Cl)c2n1` [Example 72, 5-tert-Butyl-3-(2-chloro-6-fluoro-benzyl)-7-(3,3-difluoro-pyrrolidin-1-yl)-3H-[1,2,3]triazolo[4,5-d]pyrimidine], the EC50 at human CB2 receptors was 0.1 nM; at human CB1 receptors, 41 nM.

For `CC(C)(C)c1nc(N2CCC(F)(F)C2)c2nnn(Cc3ccccn3)c2n1` [Example 73, 5-tert-Butyl-7-(3,3-difluoro-pyrrolidin-1-yl)-3-pyridin-2-ylmethyl-3H-[1,2,3]triazolo[4,5-d]pyrimidine], the EC50 came out at 0.1 nM on human CB2 receptors and 60.9 nM on human CB1 receptors.

As for `CC(C)(C)c1nc(N2CCC(F)(F)C2)c2nnn(Cc3cccnc3)c2n1` [Example 74, 5-tert-Butyl-7-(3,3-difluoro-pyrrolidin-1-yl)-3-pyridin-3-ylmethyl-3H-[1,2,3]triazolo[4,5-d]pyrimidine], the EC50 on human CB2 receptors was found to be 0.1 nM; at human CB1 receptors it was 55.9 nM.

In the case of `CC(C)(C)c1nc(N2CCC(F)(F)C2)c2nnn(Cc3ccncc3)c2n1` [Example 75, 5-tert-Butyl-7-(3,3-difluoro-pyrrolidin-1-yl)-3-pyridin-4-ylmethyl-3H-[1,2,3]triazolo[4,5-d]pyrimidine], the figures for the EC50 on human CB2 receptors and on human CB1 receptors were 0.2 nM and 97.8 nM, respectively.

`CC(C)(C)c1nc(N2CCC(F)(F)C2)c2nnn(CC(F)(F)F)c2n1` [Example 76, 5-tert-Butyl-7-(3,3-difluoro-pyrrolidin-1-yl)-3-(2,2,2-trifluoro-ethyl)-3H-[1,2,3]triazolo[4,5-d]pyrimidine]: the values for the concentration for a half-maximal effect (EC50) at human CB2 receptors and on human CB1 receptors were 2.3 nM and more than 10000 nM, respectively.

On to `CC(C)(C)c1nc(N2CCC(F)(F)C2)c2nnn(Cc3cc(F)c(F)cc3Cl)c2n1` [Example 77, 5-tert-Butyl-3-(2-chloro-4,5-difluoro-benzyl)-7-(3,3-difluoro-pyrrolidin-1-yl)-3H-[1,2,3]triazolo[4,5-d]pyrimidine], for which the EC50 was 0.8 nM on human CB2 receptors and more than 10000 nM on human CB1 receptors.

For `CC(C)(C)c1nc(N2CCC(F)(F)C2)c2nnn(Cc3c(F)ccc(F)c3Cl)c2n1` [Example 78, 5-tert-Butyl-3-(2-chloro-3,6-difluoro-benzyl)-7-(3,3-difluoro-pyrrolidin-1-yl)-3H-[1,2,3]triazolo[4,5-d]pyrimidine], the EC50 on human CB2 receptors was 0.1 nM; on human CB1 receptors it was 143 nM.

As to `CC(C)(C)c1nc(N2CCC(F)(F)C2)c2nnn(Cc3ccccc3Br)c2n1` [Example 79, 3-(2-Bromo-benzyl)-5-tert-butyl-7-(3,3-difluoro-pyrrolidin-1-yl)-3H-[1,2,3]triazolo[4,5-d]pyrimidine], the figures for the concentration giving a half-maximal response (EC50) at human CB2 receptors and on human CB1 receptors were 0.1 nM and 82.3 nM, respectively.

As to `CC(C)(C)c1nc(N2CCC(F)(F)C2)c2nnn(Cc3ccccc3C(F)(F)F)c2n1` [Example 80, 5-tert-Butyl-7-(3,3-difluoro-pyrrolidin-1-yl)-3-(2-trifluoromethyl-benzyl)-3H-[1,2,3]triazolo[4,5-d]pyrimidine], the EC50 on human CB2 receptors worked out at 0.3 nM; at human CB1 receptors, 69.3 nM.

Consider `COc1ccccc1Cn1nnc2c(N3CCC(F)(F)C3)nc(C(C)(C)C)nc21` [Example 81, 5-tert-Butyl-7-(3,3-difluoro-pyrrolidin-1-yl)-3-(2-methoxy-benzyl)-3H-[1,2,3]triazolo[4,5-d]pyrimidine], for which the EC50 on human CB2 receptors worked out at 0.1 nM; on human CB1 receptors it was 68.9 nM.

On to `CC(C)(C)c1nc(N2CCC(F)(F)C2)c2nnn(Cc3ccccc3OC(F)(F)F)c2n1` [Example 82, 5-tert-Butyl-7-(3,3-difluoro-pyrrolidin-1-yl)-3-(2-trifluoromethoxy-benzyl)-3H-[1,2,3]triazolo[4,5-d]pyrimidine], for which the figures for the EC50 at human CB2 receptors and at human CB1 receptors were 0.2 nM and 252 nM, respectively.

As for `CC(C)(C)c1nc(N2CCC(F)(F)C2)c2nnn(Cc3ccccc3C#N)c2n1` [Example 83, 2-[5-tert-Butyl-7-(3,3-difluoro-pyrrolidin-1-yl)-[1,2,3]triazolo[4,5-d]pyrimidin-3-ylmethyl]-benzonitrile], the EC50 came to 0.1 nM at human CB2 receptors and 283 nM on human CB1 receptors.

`CC(C)(C)c1nc(N2CCC(F)(F)C2)c2nnn(CCc3ccccc3)c2n1` [Example 84, 5-tert-Butyl-7-(3,3-difluoro-pyrrolidin-1-yl)-3-phenethyl-3H-[1,2,3]triazolo[4,5-d]pyrimidine]: the results for the EC50 on human CB2 receptors and at human CB1 receptors were 1.2 nM and 451 nM, respectively.

Turning to `C[C@H](c1ccccc1Cl)n1nnc2c(N3CCC(F)(F)C3)nc(C(C)(C)C)nc21` [Example 86], the EC50 at human CB2 receptors came out at 0.4 nM; at human CB1 receptors, 371 nM.

As for `C[C@@H](c1ccccc1Cl)n1nnc2c(N3CCC(F)(F)C3)nc(C(C)(C)C)nc21` [Example 87], the EC50 at human CB2 receptors amounted to 1 nM; on human CB1 receptors, 270 nM.

In the case of `CC(C)(C)c1nc(N2CCC(F)(F)C2)c2nnn(CC(O)c3ccccc3)c2n1` (stereo not drawn) [Example 88, 2-[5-tert-Butyl-7-(3,3-difluoro-pyrrolidin-1-yl)-[1,2,3]triazolo[4,5-d]pyrimidin-3-yl]-1-phenyl-ethanol], the EC50 at human CB2 receptors is 0.9 nM; on human CB1 receptors, 391 nM.

Regarding `CC(C)(C)c1nc(N2CCC(F)(F)C2)c2nnn(Cc3cccc(F)c3Cl)c2n1` [Example 89, 5-tert-Butyl-3-(2-chloro-3-fluoro-benzyl)-7-(3,3-difluoro-pyrrolidin-1-yl)-3H-[1,2,3]triazolo[4,5-d]pyrimidine], the figures for the EC50 at human CB2 receptors and at human CB1 receptors were 0.3 nM and 463 nM, respectively.

Turning to `CC(C)(C)c1nc(N2CCC(F)(F)C2)c2nnn(Cc3cc(F)ccc3Cl)c2n1` [Example 90, 5-tert-Butyl-3-(2-chloro-5-fluoro-benzyl)-7-(3,3-difluoro-pyrrolidin-1-yl)-3H-[1,2,3]triazolo[4,5-d]pyrimidine], the EC50 on human CB2 receptors stood at 0.5 nM; at human CB1 receptors, 370 nM.

For the compound `CC(C)(C)c1nc(N2C[C@@H](O)C[C@@H]2CO)c2nnn(Cc3ccccc3Cl)c2n1` [Example 93, (3S,5R)-1-[5-tert-Butyl-3-(2-chloro-benzyl)-3H-[1,2,3]triazolo[4,5-d]pyrimidin-7-yl]-5-hydroxymethyl-pyrrolidin-3-ol], the concentration giving a half-maximal response (EC50) at human CB2 receptors is 4.5 nM; on human CB1 receptors, more than 10000 nM.

As to `CC(C)(C)c1nc(N2CC(F)(F)C[C@@H]2CO)c2nnn(Cc3ccccc3Cl)c2n1` [Example 94, {(R)-1-[5-tert-Butyl-3-(2-chloro-benzyl)-3H-[1,2,3]triazolo[4,5-d]pyrimidin-7-yl]-4,4-difluoro-pyrrolidin-2-yl}-methanol], the values for the EC50 at human CB2 receptors and on human CB1 receptors were 1 nM and more than 10000 nM, respectively.

On to `CC(C)(C)c1nc(N2CCC(F)(F)C2)c2nnn(Cc3c(Cl)ccc(F)c3Cl)c2n1` [Example 96, 5-tert-Butyl-3-(2,6-dichloro-3-fluoro-benzyl)-7-(3,3-difluoro-pyrrolidin-1-yl)-3H-[1,2,3]triazolo[4,5-c]pyrimidine], for which the 50% effective concentration (EC50) at human CB2 receptors amounted to 0.1 nM; at human CB1 receptors it was 167 nM.

In the case of `CC(C)(C)c1nc(N2CCC(F)(F)C2)c2nnn(Cc3cccnc3Cl)c2n1` [Example 97, 5-tert-Butyl-3-(2-chloro-pyridin-3-ylmethyl)-7-(3,3-difluoro-pyrrolidin-1-yl)-3H-[1,2,3]triazolo[4,5-c]pyrimidine], the EC50 on human CB2 receptors was 0.1 nM; at human CB1 receptors it was 62.3 nM.
